Assay results from ChEMBL document CHEMBL1136564, “Sordaricin antifungal agents” (2003).
In brackets after ≈: the same amount, converted by molar mass.

Columns and labels:
Nakaseomyces glabratus = test: Minimum inhibitory concentration required to inhibit 90 to 100% visible growth of Candida glabrata; assay type: functional
Candida albicans = test: Minimum inhibitory concentration to inhibit 90 to 100% visible growth of Candida albicans; assay type: functional

SMILES | MIC (Nakaseomyces glabratus) | MIC (Candida albicans)
CC(C)CCOCCC12CC3C(CC[C@H]3C)C3(C=O)CC1C=C(C(C)C)C32C(=O)O (stereo partly drawn) | 64 mg/L (≈ 154 µM) | 2 mg/L (≈ 4.8 µM)
CC(C)C1=CC2CC3(C=O)C4CC[C@@H](C)C4CC2(CCOC(=O)CCc2c[nH]c4ccccc24)C13C(=O)O (stereo partly drawn) | > 128 mg/L | > 128 mg/L
CC(C)C1=CC2CC3(C=O)C4CC[C@@H](C)C4CC2(CCOC(=O)c2ccc(F)cc2)C13C(=O)O (stereo partly drawn) | > 128 mg/L | 4 mg/L (≈ 8.54 µM)
CC(C)C1=CC2CC3(C=O)C4CC[C@@H](C)C4CC2(CCOC(=O)c2cc4ccccc4o2)C13C(=O)O (stereo partly drawn) | > 128 mg/L | > 128 mg/L
C=CCCCCC(=O)OCCC12CC3C(CC[C@H]3C)C3(C=O)CC1C=C(C(C)C)C32C(=O)O (stereo partly drawn) | 8 mg/L (≈ 17.5 µM) | < 0.06 mg/L
CC(C)C1=CC2CC3(C=O)[C@@H]4CC[C@@H](C)[C@H]4CC2(C(=O)CCc2ccccc2)[C@]13C(=O)O | 8 mg/L (≈ 18.4 µM) | 16 mg/L (≈ 36.8 µM)
CC(C)C1=CC2CC3(C=O)[C@@H]4CC[C@@H](C)[C@H]4CC2(C(=O)C#CC(C)(C)C)[C@]13C(=O)O | > 128 mg/L | > 128 mg/L
CC(C)C1=CC2CC3(C=O)C4CC[C@@H](C)C4CC2(CCOC(=O)c2ccc4c(c2)OCO4)C13C(=O)O (stereo partly drawn) | > 128 mg/L | 2 mg/L (≈ 4.04 µM)
CC(C)C1=CC2CC3(C=O)C4CC[C@@H](C)C4CC2(CCOC(=O)c2cncc(Br)c2)C13C(=O)O (stereo partly drawn) | > 128 mg/L | 4 mg/L (≈ 7.54 µM)
CSc1ccc(CC(=O)OCCC23CC4C(CC[C@H]4C)C4(C=O)CC2C=C(C(C)C)C43C(=O)O)cc1 (stereo partly drawn) | > 128 mg/L | 0.5 mg/L (≈ 0.979 µM)
CC(C)C1=CC2CC3(C=O)C4CC[C@@H](C)C4CC2(CCOC(=O)c2ccc(C#N)cc2)C13C(=O)O (stereo partly drawn) | > 128 mg/L | 8 mg/L (≈ 16.8 µM)
CC(C)C1=CC2CC3(C=O)C4CC[C@@H](C)C4CC2(CCOC(=O)C2CCN(C(=O)OC(C)(C)C)CC2)C13C(=O)O (stereo partly drawn) | > 128 mg/L | 8 mg/L (≈ 14.3 µM)
CCCOc1ccc(C(=O)OCCC23CC4C(CC[C@H]4C)C4(C=O)CC2C=C(C(C)C)C43C(=O)O)cc1 (stereo partly drawn) | > 128 mg/L | 128 mg/L (≈ 252 µM)
CC(C)C1=CC2CC3(C=O)C4CC[C@@H](C)C4CC2(CCOC(=O)c2cccc(C#N)c2)C13C(=O)O (stereo partly drawn) | > 128 mg/L | 1 mg/L (≈ 2.1 µM)
CC(C)C1=CC2CC3(C=O)C4CC[C@@H](C)C4CC2(CCOC(=O)c2ccc(S(N)(=O)=O)cc2)C13C(=O)O (stereo partly drawn) | > 128 mg/L | > 128 mg/L
CC(C)C1=CC2CC3(C=O)C4CC[C@@H](C)C4CC2(CCOC(=O)CSc2ccccc2)C13C(=O)O (stereo partly drawn) | 32 mg/L (≈ 64.4 µM) | 0.5 mg/L (≈ 1.01 µM)
CC(C)C1=CC2CC3(C=O)C4CC[C@@H](C)C4CC2(CCOC(=O)c2cccs2)C13C(=O)O (stereo partly drawn) | > 128 mg/L | > 128 mg/L
CCCCCCCCCCCCCCCCC(=O)C12C[C@@H]3[C@H](C)CC[C@H]3C3(C=O)CC1C=C(C(C)C)[C@@]23C(=O)O | > 128 mg/L | > 128 mg/L
CC(C)C1=CC2CC3(C=O)C4CC[C@@H](C)C4CC2(CCOC(=O)c2ccc(I)cc2)C13C(=O)O (stereo partly drawn) | > 128 mg/L | 2 mg/L (≈ 3.47 µM)
CC(C)C1=CC2CC3(C=O)[C@@H]4CC[C@@H](C)[C@H]4CC2(C(O)CCc2ccccc2)[C@]13C(=O)O (stereo partly drawn) | > 128 mg/L | > 128 mg/L
CC(C)C1=CC2CC3(C=O)C4CC[C@@H](C)C4CC2(CCOC(=O)c2cccc(C(=O)O)n2)C13C(=O)O (stereo partly drawn) | > 128 mg/L | > 128 mg/L
CC(C)C1=CC2CC3(C=O)C4CC[C@@H](C)C4CC2(CCOC(=O)c2ccc([N+](=O)[O-])cc2Cl)C13C(=O)O (stereo partly drawn) | > 128 mg/L | 128 mg/L (≈ 242 µM)
CC(C)C1=CC2CC3(C=O)C4CC[C@@H](C)C4CC2(CCOC(=O)c2cccn2C)C13C(=O)O (stereo partly drawn) | > 128 mg/L | > 128 mg/L
CC(C)C1=CC2CC3(C=O)C4CC[C@@H](C)C4CC2(CCOC(=O)CCNC(=O)OC(C)(C)C)C13C(=O)O (stereo partly drawn) | > 128 mg/L | 64 mg/L (≈ 124 µM)

SMILES | MIC (Nakaseomyces glabratus) | MIC (Candida albicans)
CSc1ccc(C(=O)OCCC23CC4C(CC[C@H]4C)C4(C=O)CC2C=C(C(C)C)C43C(=O)O)cc1 (stereo partly drawn) | > 128 mg/L | 2 mg/L (≈ 4.03 µM)
CC(C)C1=CC2CC3(C=O)C4CC[C@@H](C)C4CC2(CCOC(=O)Cc2ccc(Br)o2)C13C(=O)O (stereo partly drawn) | 64 mg/L (≈ 120 µM) | 2 mg/L (≈ 3.75 µM)
CC(C)C1=CC2CC3(C=O)C4CC[C@@H](C)C4CC2(CCOC(=O)c2cc[n+]([O-])cc2)C13C(=O)O (stereo partly drawn) | > 128 mg/L | > 128 mg/L
CC(C)C1=CC2CC3(C=O)C4CC[C@@H](C)C4CC2(CCOC(=O)Cc2csc4ccccc24)C13C(=O)O (stereo partly drawn) | > 128 mg/L | 8 mg/L (≈ 15.4 µM)
CC(C)C1=CC2CC3(C=O)C4CC[C@@H](C)C4CC2(CCOC(=O)c2nccc4ccccc24)C13C(=O)O (stereo partly drawn) | > 128 mg/L | > 128 mg/L
CC(C)C1=CC2CC3(C=O)C4CC[C@@H](C)C4CC2(CCOC(=O)c2ccc(Cl)cc2)C13C(=O)O (stereo partly drawn) | > 128 mg/L | 4 mg/L (≈ 8.25 µM)
CC(C)C1=CC2CC3(C=O)C4CC[C@@H](C)C4CC2(CCOC(=O)[C@H](NC(=O)OC(C)(C)C)c2ccccc2)C13C(=O)O (stereo partly drawn) | > 128 mg/L | 4 mg/L (≈ 6.9 µM)
CC(C)C1=CC2CC3(C=O)[C@@H]4CC[C@@H](C)[C@H]4CC2(C(O)C#Cc2ccccc2)[C@]13C(=O)O (stereo partly drawn) | 8 mg/L (≈ 18.5 µM) | 0.25 mg/L (≈ 0.578 µM)
CC(C)C1=CC2CC3(C=O)C4CC[C@@H](C)C4CC2(CCOC(=O)Cc2c[nH]c4ccccc24)C13C(=O)O (stereo partly drawn) | > 128 mg/L | –
CC(C)C1=CC2CC3(C=O)C4CC[C@@H](C)C4CC2(CCOC(=O)c2cnc(O)nc2O)C13C(=O)O (stereo partly drawn) | > 128 mg/L | > 128 mg/L
CC(C)C1=CC2CC3(C=O)C4CC[C@@H](C)C4CC2(CCO)C13C(=O)O (stereo partly drawn) | > 128 mg/L | > 128 mg/L
CC(C)C1=CC2CC3(C=O)C4CC[C@@H](C)C4CC2(CCOC(=O)c2cnc4ccccc4c2)C13C(=O)O (stereo partly drawn) | > 128 mg/L | 4 mg/L (≈ 7.97 µM)
CC(C)C1=CC2CC3(C=O)C4CC[C@@H](C)C4CC2(CCOC(=O)CC(C)(C)C)C13C(=O)O (stereo partly drawn) | 4 mg/L (≈ 9 µM) | < 0.06 mg/L
CC(=O)CCC(=O)OCCC12CC3C(CC[C@H]3C)C3(C=O)CC1C=C(C(C)C)C32C(=O)O (stereo partly drawn) | > 128 mg/L | 8 mg/L (≈ 18 µM)
CC(C)C1=CC2CC3(C=O)C4CC[C@@H](C)C4CC2(CCOC(=O)CCC(=O)O)C13C(=O)O (stereo partly drawn) | > 128 mg/L | < 128 mg/L
CC(C)C1=CC2CC3(C=O)C4CC[C@@H](C)C4CC2(CCOC(=O)c2ccco2)C13C(=O)O (stereo partly drawn) | > 128 mg/L | 8 mg/L (≈ 18.2 µM)
CC(C)C1=CC2CC3(C=O)C4CC[C@@H](C)C4CC2(CCOC(=O)C2CCCCC2)C13C(=O)O (stereo partly drawn) | 8 mg/L (≈ 17.5 µM) | < 0.06 mg/L
CC(C)C1=CC2CC3(C=O)C4CC[C@@H](C)C4CC2(CCOC(=O)c2cccnc2)C13C(=O)O (stereo partly drawn) | > 128 mg/L | 16 mg/L (≈ 35.4 µM)
CC(=O)OCC(=O)OCCC12CC3C(CC[C@H]3C)C3(C=O)CC1C=C(C(C)C)C32C(=O)O (stereo partly drawn) | > 128 mg/L | > 128 mg/L
CC(C)C1=CC2CC3(C=O)C4CC[C@@H](C)C4CC2(CCOC(=O)[C@H](C)NC(=O)OC(C)(C)C)C13C(=O)O (stereo partly drawn) | > 128 mg/L | 32 mg/L (≈ 61.8 µM)
CC(C)C1=CC2CC3(C=O)C4CC[C@@H](C)C4CC2(CCOC(=O)[C@@H]2CCC(=O)N2)C13C(=O)O (stereo partly drawn) | > 128 mg/L | > 128 mg/L
CC(C)C1=CC2CC3(C=O)[C@@H]4CC[C@@H](C)[C@H]4CC2(C(O)C#CC(C)(C)C)[C@]13C(=O)O (stereo partly drawn) | 128 mg/L (≈ 310 µM) | 128 mg/L (≈ 310 µM)
CCCCCCCCCCCCCCCCC(O)C12C[C@@H]3[C@H](C)CC[C@H]3C3(C=O)CC1C=C(C(C)C)[C@@]23C(=O)O (stereo partly drawn) | > 128 mg/L | > 128 mg/L
